The values below come from US20130216631A1, “TARGETED PERFORMANCE OF HYPOHALITE COMPOSITIONS THEREOF” (The Clorox Company, priority 2012, published 2013).

This series can be described thus: Percentage of initial hypochlorite remaining over time after mixing oxidant and reductant. In kind it is physicochemical. The following applies: any pH below 12. The text has this: The amount of available halogen oxidant in the composition may be determined by placing samples of the composition into about 50 milliliters of distilled water, followed by addition of about 10 milliliters of a 10 wt % solution of potassium iodide and addition of about 10 milliliters of a 10 volume % solution of sulfuric acid, the resulting mixture being well stirred. The resulting yellow to brown solution, whose color is the result of oxidation of […] (I^−) to molecular iodine (I2), is then volumetrically titrated to an essentially colorless endpoint by addition of standardized 0.1 Molar sodium thiosulfate (Na2S2O3) titrant. […] Stability results are then expressed by repeated assays over time using identically prepared samples resulting from the same composition, normalized to 100 percent representative of the starting available chlorine measured initially.
Alternatively, at lower concentrations of hypochlorite, generally below about 2,000 ppm or 0.2 wt %, spectroscopic measurement of the absorption of aqueous solutions may be used to monitor the concentration, and resulting changes, of the hypochlorous acid species in solution. […] By use of controls, the relative level of hypochlorite can then be monitored and calculated by measuring absorbance of solutions by means of a suitable instrument, such as a spectrophotometer. […]

For the compound `O=C(O)CN(CCN(CC(=O)O)CC(=O)O)CC(=O)O` [EDTA, ethylene diamine tetra-acetic acid], the “reaction of reductant with hypochlorite (quench rate)” value is listed as “reacts almost instantly”.
